Activity calls are given as the source filed them. The rule behind the calls is not given here.
Tests used:
Human adenovirus 5 [1] = experiment: Antiviral activity against Human adenovirus 5 infected in A549 cells assessed as decrease in […] cDNA copies incubated for 24 hrs by qRT-PCR analysis; type: functional, organism-based
Human adenovirus 5 [2] = experiment: Antiviral activity against Human adenovirus 5 infected in A549 cells assessed as decrease in […] cDNA copies at 50 uM incubated for 24 hrs by qRT-PCR analysis; type: functional, organism-based
Human betaherpesvirus 5 = experiment: Antiviral activity against Human cytomegalovirus infected in MRC5 cells assessed as decrease in viral DNA copies at 50 uM incubated for 72 hrs by qRT-PCR analysis; type: functional, organism-based
Human adenovirus 5 [3] = experiment: Antiviral activity against Human adenovirus 5 infected in A549 cells assessed as nuclear associated viral DNA copies at 50 uM incubated for 45 mins by qRT-PCR analysis; type: functional, organism-based
[4] = Cytotoxicity against human A549 cells assessed as reduction in cell viability incubated for 48 hrs by alamarBlue assay; type: cell-based
[5] = Stability in Syrian hamster serum assessed as parent compound remaining at 1 uM measured after 15 mins by LC-MS/MS analysis; type: ADME, cell-free, Mesocricetus auratus; conditions: for remaining at 0.25 h, 1 µM: read-out: Stability
[6] = Stability in Syrian hamster serum assessed as parent compound remaining at 1 uM measured immediately by LC-MS/MS analysis; type: ADME, cell-free, Mesocricetus auratus; conditions: read-out: Stability
Human adenovirus 5 [7] = experiment: Antiviral activity against Human adenovirus 5 infected in HEK293beta5 cells coexpressing GFP assessed as inhibition of plaque formation at 10 uM incubated for 7 days relative to control; type: functional; conditions: Human mastadenovirus C, 168 h
Human adenovirus 5 [8] = experiment: Antiviral activity against Human adenovirus 5 infected in A549 cells assessed as fold reduction in virus yield at 50 uM incubated for 48 hrs by endpoint dilution method relative to control; type: functional
[9] = Stability in Syrian hamster serum assessed as parent compound remaining at 1 uM measured after 30 mins by LC-MS/MS analysis; type: ADME, cell-free, Mesocricetus auratus; conditions: for remaining at 0.5 h, 1 µM: read-out: Stability
[10] = Selectivity Index, ratio of CC50 for human A549 cells to IC50 for Human adenovirus 5 infected in HEK293beta5 cells coexpressing GFP; type: toxicity, cell-based; conditions: read-out: Ratio CC50/IC50
[11] = Stability in Syrian hamster serum assessed as parent compound remaining at 1 uM measured after 120 mins by LC-MS/MS analysis; type: ADME, cell-free, Mesocricetus auratus; conditions: read-out: Stability
Human adenovirus 5 [12] = experiment: Antiviral activity against Human adenovirus 5 infected in HEK293beta5 cells coexpressing GFP assessed as inhibition of plaque formation incubated for 7 days; type: functional, organism-based; conditions: Human mastadenovirus C, 168 h
[13] = Stability in Syrian hamster serum assessed as parent compound remaining at 1 uM measured after 60 mins by LC-MS/MS analysis; type: ADME, cell-free, Mesocricetus auratus; conditions: read-out: Stability

Row | Stability ([5]; 0.25 h, 1 µM) [%] | remaining at 0 min, 1 µM [6] [%] | Stability ([9]; 0.5 h, 1 µM) [%] | remaining at 2 h, 1 µM [11] [%] | IC50 (Human adenovirus 5 [12]) [µM] | remaining at 1 h, 1 µM [13] [%] | remaining at 0.25 h, 1 µM [5] [%] | remaining at 0.5 h, 1 µM [9] [%] | Compound | Activity (Human adenovirus 5 [1]) | Activity (Human adenovirus 5 [2]) | Activity (Human betaherpesvirus 5) | Activity (Human adenovirus 5 [3]) | CC50 at 48 h [4] [µM] | inhibition at 10 µM (Human adenovirus 5 [7]) [%] | fold change (FC) (Human adenovirus 5 [8]) | selectivity ratio [10]
1 |  |  |  |  |  |  |  |  | CC[C@H](C)[C@@H]1NC(=O)CNC(=O)[C@@H]2Cc3c([nH]c4cc(O)ccc34)[S@+]([O-])C[C@H](NC(=O)CNC1=O)C(=O)N[C@@H](CC(N)=O)C(=O)N1C[C@H](O)C[C@H]1C(=O)N[C@@H]([C@@H](C)[C@@H](O)CO)C(=O)N2 | Dose-dependent effect |  |  |  |  |  |  | 
2 | 142.7 | 100 | 139.4 | 107 | 2 | 114 |  |  | CC1CN(C(=O)Cc2ccccc2)CCN1C(=S)Nc1ccc([N+](=O)[O-])cc1 (stereo not drawn) |  | inactive | Active | Active | 210 | 98.2 | 25.6 | 105
3 |  | 100 |  | 100 | 0.7 | 90.5 | 97.2 | 110 | O=C(Cc1ccccc1)N1CCN(C(=S)Nc2cc(C(F)(F)F)cc(C(F)(F)F)c2)C(c2ccccc2)C1 (stereo not drawn) |  |  |  | Active | 104 | 100 | 1690 | 149
4 |  | 100 |  | 75.4 | 1.8 | 86.5 | 97.8 | 102 | CC1CN(C(=O)OC(C)(C)C)CCN1C(=S)Nc1ccc(F)cc1 (stereo not drawn) |  |  |  | Active | 200 | 92.9 | 12.1 | 111
5 |  | 100 |  | 92.8 | 5.1 | 96.5 | 109 | 107 | CC1CN(C(=O)Cc2ccccc2)CCN1C(=S)Nc1cc(C(F)(F)F)cc(C(F)(F)F)c1 (stereo not drawn) | Dose-dependent effect | Active | Active | Active |  | 73.4 | 33.4 | 25.4
6 |  | 100 |  | 67.3 | 0.6 | 85 | 117 | 96.4 | CC1CN(C(=O)CC2CCCCC2)CCN1C(=S)Nc1ccc(F)cc1 (stereo not drawn) |  |  |  | Active | 143 | 100 | 30.5 | 238
7 |  |  |  |  | 2.1 |  |  |  | Cc1ccc(NC(=S)N2CCN(C(=O)CC3CCCCC3)CC2C)cc1 (stereo not drawn) |  | inactive | Active | Active | 122 | 95.8 | 39.1 | 58.2
